According to patent US6737383B1, “Herbicidal oxadiazolidines” (priority 1999, dated 2004):

Key:
bedstraw = assay: Test B pre/postemergence bedstraw; type: in vivo, Galium aparine
In short: (§1)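 Herbicidal effect was estimated by eye on a ten-point control scale after plants spent twelve to sixteen days in a greenhouse following soil or foliar treatment. Foliar sprays targeted plants at one to four leaves; all doses were formulated in a non-phytotoxic solvent with surfactant.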

cocklebur = assay: Test B pre/postemergence cocklebur; type: in vivo, Xanthium strumarium
In short: as §1

velvetleaf = assay: Test B pre/postemergence velvetleaf; type: in vivo, Abutilon theophrasti
In short: as §1

morningglory = assay: Test B pre/postemergence morningglory; type: in vivo, Ipomoea hederacea
In short: as §1

blackgrass = assay: Test B pre/postemergence blackgrass; type: in vivo, Alopecurus myosuroides
In short: as §1

surinam grass = assay: Test B pre/postemergence surinam grass; type: in vivo, Brachiaria decumbens
In short: as §1

giant foxtail = assay: Test B pre/postemergence giant foxtail; type: in vivo, Setaria faberii
In short: as §1

rape = assay: Test B pre/postemergence rape; type: in vivo, Brassica napus
In short: as §1

sugar beet = assay: Test B pre/postemergence sugar beet; type: in vivo, Beta vulgaris
In short: as §1

crabgrass = assay: Test B pre/postemergence crabgrass; type: in vivo, Digitaria sanguinalis
In short: as §1

soybean = assay: Test B pre/postemergence soybean; type: in vivo, Glycine max
In short: as §1

corn = assay: Test B pre/postemergence corn; type: in vivo, Zea mays
In short: as §1

wheat = assay: Test B pre/postemergence wheat; type: in vivo, Triticum aestivum
In short: as §1

pigweed = assay: Test B pre/postemergence pigweed; type: in vivo, Amaranthus retroflexus
In short: as §1

wild oat = assay: Test B pre/postemergence wild oat; type: in vivo, Avena fatua
In short: as §1

purple nutsedge = assay: Test B pre/postemergence purple nutsedge; type: in vivo, Cyperus rotundus
In short: as §1

[1] = Postemergence, Rate 62 g/ha, scale 0 to 10, 0 is no effect, 10 is complete control
[2] = Postemergence, Rate 125 g/ha, scale of 0 to 10 where 0 is no effect and 10 is complete control
[3] = Preemergence, Rate 125 g/ha, scale of 0 to 10 where 0 is no effect and 10 is complete control
[4] = Rate 62 g/ha, Preemergence, scale 0 to 10
[5] = Rate 500 g/ha, Preemergence, scale 0 to 10 (0 no effect, 10 complete control)
[6] = Preemergence, Rate 250 g/ha, scale 0 (no effect) to 10 (complete control)
[7] = Rate 250 g/ha, Postemergence, scale 0 to 10, 0 is no effect, 10 is complete control
[8] = Rate 500 g/ha, Postemergence, scale 0 to 10, 0 is no effect, 10 is complete control

CC(C)N(C(=O)n1oc(=O)n(C[C@H](C)Cl)c1=O)c1ccccc1 [Compound 747]
Plant response rating, Bedstraw (bedstraw; [1]): 8
Bedstraw plant response rating (bedstraw; [2]): 8
Plant response rating, Bedstraw (bedstraw; [3]): 0
Bedstraw plant response rating (bedstraw; [4]): 0
Bedstraw plant response rating (bedstraw; [5]): 0
Plant response rating, Cocklebur (cocklebur; [1]): 0
Cocklebur plant response rating (cocklebur; [2]): 0
Cocklebur plant response rating (cocklebur; [6]): 0
Cocklebur plant response rating (cocklebur; [4]): 0
Cocklebur plant response rating (cocklebur; [7]): 2
Cocklebur plant response rating (cocklebur; [8]): 4
Cocklebur plant response rating (cocklebur; [5]): 0
Plant response rating, Velvetleaf (velvetleaf; [1]): 0
Velvetleaf plant response rating (velvetleaf; [2]): 4
Plant response rating, Velvetleaf (velvetleaf; [3]): 6
Velvetleaf plant response rating (velvetleaf; [6]): 7
Velvetleaf plant response rating (velvetleaf; [4]): 4
Velvetleaf plant response rating (velvetleaf; [7]): 4
Velvetleaf plant response rating (velvetleaf; [8]): 7
Velvetleaf plant response rating (velvetleaf; [5]): 7
Plant response rating, Morningglory (morningglory; [1]): 2
Morningglory plant response rating (morningglory; [2]): 9
Plant response rating, Morningglory (morningglory; [3]): 0
Morningglory plant response rating (morningglory; [6]): 0
Morningglory plant response rating (morningglory; [4]): 0
Morningglory plant response rating (morningglory; [7]): 10
Morningglory plant response rating (morningglory; [8]): 10
Morningglory plant response rating (morningglory; [5]): 7
Plant response rating, Blackgrass (blackgrass; [1]): 5
Blackgrass plant response rating (blackgrass; [2]): 7
Plant response rating, Blackgrass (blackgrass; [3]): 8
Blackgrass plant response rating (blackgrass; [4]): 8
Blackgrass plant response rating (blackgrass; [7]): 8
Blackgrass plant response rating (blackgrass; [8]): 8
Blackgrass plant response rating (blackgrass; [5]): 8
Plant response rating, B. signalgrass (surinam grass; [1]): 1
B. signalgrass plant response rating (surinam grass; [2]): 3
B. signalgrass plant response rating (surinam grass; Preemergence, Rate 62 g/ha, scale of 0 to 10 where 0 is no effect and 10 is complete control): 7
Plant response rating, B. signalgrass (surinam grass; [3]): 8
B. signalgrass plant response rating (surinam grass; [7]): 4
B. signalgrass plant response rating (surinam grass; [8]): 6
B. signalgrass plant response rating (surinam grass; [5]): 9
Plant response rating, Giant foxtail (giant foxtail; [1]): 8
Giant foxtail plant response rating (giant foxtail; [2]): 9
Plant response rating, Giant foxtail (giant foxtail; [3]): 10
Giant foxtail plant response rating (giant foxtail; [6]): 10
Giant foxtail plant response rating (giant foxtail; [4]): 10
Giant foxtail plant response rating (giant foxtail; [7]): 9
Giant foxtail plant response rating (giant foxtail; [8]): 9
Giant foxtail plant response rating (giant foxtail; [5]): 10
Plant response rating, Rape (rape; [1]): 4
Rape plant response rating (rape; [2]): 4
Plant response rating, Rape (rape; [3]): 9
Rape plant response rating (rape; [6]): 10
Rape plant response rating (rape; [4]): 7
Rape plant response rating (rape; [7]): 4
Rape plant response rating (rape; [8]): 9
Plant response rating, Sugarbeets (sugar beet; [1]): 0
Sugarbeets plant response rating (sugar beet; [2]): 0
Plant response rating, Sugarbeets (sugar beet; [3]): 6
Sugarbeets plant response rating (sugar beet; [6]): 7
Sugarbeets plant response rating (sugar beet; [4]): 4
Sugarbeets plant response rating (sugar beet; [7]): 0
Sugarbeets plant response rating (sugar beet; [8]): 3
Plant response rating, Crabgrass (crabgrass; [1]): 3
Crabgrass plant response rating (crabgrass; [2]): 9
Plant response rating, Crabgrass (crabgrass; [3]): 10
Crabgrass plant response rating (crabgrass; [6]): 10
Crabgrass plant response rating (crabgrass; [4]): 10
Crabgrass plant response rating (crabgrass; [7]): 9
Crabgrass plant response rating (crabgrass; [8]): 9
Crabgrass plant response rating (crabgrass; [5]): 10
Plant response rating, Soybean (soybean; [1]): 4
Soybean plant response rating (soybean; [2]): 4
Plant response rating, Soybean (soybean; [3]): 0
Soybean plant response rating (soybean; [6]): 0
Soybean plant response rating (soybean; [4]): 0
Soybean plant response rating (soybean; [7]): 7
Soybean plant response rating (soybean; [8]): 8
Soybean plant response rating (soybean; [5]): 9
Plant response rating, Corn (corn; [1]): 0
Corn plant response rating (corn; [2]): 0
Plant response rating, Corn (corn; [3]): 2
Corn plant response rating (corn; [6]): 6
Corn plant response rating (corn; [4]): 2
Corn plant response rating (corn; [7]): 4
Corn plant response rating (corn; [8]): 5
Corn plant response rating (corn; [5]): 9
Plant response rating, Wheat (wheat; [1]): 0
Wheat plant response rating (wheat; [2]): 0
Wheat plant response rating (wheat; [6]): 0
Wheat plant response rating (wheat; [4]): 0
Wheat plant response rating (wheat; [7]): 4
Wheat plant response rating (wheat; [8]): 4
Plant response rating, Redroot pigweed (pigweed; [1]): 4
Redroot pigweed plant response rating (pigweed; [2]): 4
Redroot pigweed plant response rating (pigweed; [6]): 8
Redroot pigweed plant response rating (pigweed; [4]): 8
Redroot pigweed plant response rating (pigweed; [7]): 7
Redroot pigweed plant response rating (pigweed; [8]): 8
Plant response rating, Wild oats (wild oat; [1]): 0
Wild oats plant response rating (wild oat; [2]): 0
Wild oats plant response rating (wild oat; [6]): 3
Wild oats plant response rating (wild oat; [4]): 3
Wild oats plant response rating (wild oat; [7]): 2
Wild oats plant response rating (wild oat; [8]): 2
Plant response rating, Nutsedge (purple nutsedge; [1]): 0
Nutsedge plant response rating (purple nutsedge; [2]): 0
Plant response rating, Nutsedge (purple nutsedge; [3]): 2
Nutsedge plant response rating (purple nutsedge; [6]): 4
Nutsedge plant response rating (purple nutsedge; [4]): 0
Nutsedge plant response rating (purple nutsedge; [7]): 0
Nutsedge plant response rating (purple nutsedge; [8]): 0
Nutsedge plant response rating (purple nutsedge; [5]): 2
